As a reminder, the EC50 is the concentration at which the effect is half-maximal.

In one assay the target is T1, human GLP-1 receptor (Homo sapiens, UniProt P43220).
T1 construct: HA (N); expressed in transfected cells
T1 sequence (P43220 24-463): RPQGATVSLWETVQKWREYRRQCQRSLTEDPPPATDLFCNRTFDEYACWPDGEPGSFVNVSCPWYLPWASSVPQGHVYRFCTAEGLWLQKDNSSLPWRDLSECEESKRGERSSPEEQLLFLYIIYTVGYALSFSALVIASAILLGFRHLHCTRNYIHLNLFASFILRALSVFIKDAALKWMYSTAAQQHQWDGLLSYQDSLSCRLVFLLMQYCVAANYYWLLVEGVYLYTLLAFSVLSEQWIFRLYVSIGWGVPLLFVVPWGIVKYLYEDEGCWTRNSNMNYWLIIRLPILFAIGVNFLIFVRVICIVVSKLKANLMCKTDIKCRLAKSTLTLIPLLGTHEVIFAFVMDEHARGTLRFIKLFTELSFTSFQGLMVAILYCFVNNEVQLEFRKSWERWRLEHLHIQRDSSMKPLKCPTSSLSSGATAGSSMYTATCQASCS
The assay is described as follows: GLP-1 receptor-mediated agonist activity: cAMP level in hGLP-1R/HEK293 cell line (HTRF). The class given is cell-based. The following applies: cAMP levels in hGLP-1R/HEK293 cell line; Table 1; read-out: determined EC50. (Cyclic AMP is a second messenger, typically raised through Gs and lowered through Gi signalling.)
Consider `N#Cc1ccc(COc2cccc(N3C=NN(Cc4nc5c(OC6CC6)cc(C(=O)O)cc5n4C[C@@H]4CCO4)CC3)n2)c(F)c1` [Compound 13, (S)-2-((4-(6-((4-cyano-2-fluorobenzyl)oxy)pyridin-2-yl)-5,6-dihydro-1,2,4-triazin-1(4H)-yl)methyl)-4-cyclopropyloxy-1-(oxetan-2-ylmethyl)-1H-benzo[d]imidazole-6-carboxylic acid], for which the EC50 was 0.0022 nM.
Consider `CCOc1cc(C(=O)O)cc2c1nc(CN1CCC(c3cccc4c3OC(C)(c3ccc(Cl)cc3F)O4)CC1)n2C[C@@H]1CCO1` (stereo partly drawn) [Compound 37, 2-((4-(2-(4-chloro-2-fluorophenyl)-2-methylbenzo[d][1,3]dioxol-4-yl)piperidin-1-yl)methyl)-4-ethoxy-1-(((S)-oxetan-2-yl)methyl)-1H-benzo[d]imidazole-6-carboxylic acid], for which the EC50 was found to be 0.0067 nM.
As for `CCOc1cc(C(=O)O)cc2c1nc(CN1CCC(c3cccc(OCc4ccc(C#N)cc4F)n3)CC1)n2C[C@@H]1CCO1` [Compound 2, (S)-2-((4-(6-((4-cyano-2-fluorobenzyl)oxy)pyridin-2-yl)piperidin-1-yl)methyl)-4-ethoxy-1-(oxetan-2-ylmethyl)-1H-benzo[d]imidazole-6-carboxylic acid], the concentration for a half-maximal effect (EC50) stood at 0.0011 nM.
The same measure, in the same setting: then `CCOc1cc(C(=O)O)cc2c1nc(CN1CCN(c3cccc4c3OC(C)(c3ccc(Cl)c(F)c3F)O4)C=N1)n2C[C@@H]1CCO1` (stereo partly drawn) [Compound 78, 2-((4-(2-(4-chloro-2,3-difluorophenyl)-2-methylbenzo[d][1,3]dioxol-4-yl)-5,6-dihydro-1,2,4-triazin-1(4H)-yl)methyl)-4-ethoxy-1-(((S)-oxetan-2-yl)methyl)-1H-benzo[d]imidazole-6-carboxylic acid], with 0.0115 nM.
With `N#Cc1ccc(COc2cccc(N3C=NN(Cc4nc5c(OC(F)F)cc(C(=O)O)cc5n4C[C@@H]4CCO4)CC3)n2)c(F)c1` [Compound 11, (S)-2-((4-(6-((4-cyano-2-fluorobenzyl)oxy)pyridin-2-yl)-5,6-dihydro-1,2,4-triazin-1(4H)-yl)methyl)-4-(difluoromethoxy)-1-(oxetan-2-ylmethyl)-1H-benzo[d]imidazole-6-carboxylic acid], the EC50 came out at 0.0133 nM.
Still for that read-out and setting: the result for `COc1cc(C(=O)O)cc2c1nc(CN1CCN(c3cccc4c3OC(C)(c3ccc(C(F)(F)F)cn3)O4)C=N1)n2C[C@@H]1CCO1` (stereo partly drawn) [Compound 65, 4-methoxy-2-((4-(2-methyl-2-(5-(trifluoromethyl)pyridin-2-yl)benzo[d][1,3]dioxol-4-yl)-5,6-dihydro-1,2,4-triazin-1(4H)-yl)methyl)-1-(((S)-oxetan-2-yl)methyl)-1H-benzo[d]imidazole-6-carboxylic acid] reads 0.049 nM; that for `COc1cc(C(F)(F)F)ccc1COc1cccc(C2CCN(Cc3nc4c(OC)cc(C(=O)O)cc4n3C[C@@H]3CCO3)CC2)n1` [Compound 51, (S)-4-methoxy-2-((4-(6-((2-methoxy-4-(trifluoromethyl)benzyl)oxy)pyridin-2-yl)piperidin-1-yl)methyl)-1-(oxetan-2-ylmethyl)-1H-benzo[d]imidazole-6-carboxylic acid], 0.0016 nM.
In the case of `CCOc1cc(C(=O)O)cc2c1nc(CN1CCC(c3cccc4c3OC(C)(c3ccc(Cl)cc3OC)O4)CC1)n2C[C@@H]1CCO1` (stereo partly drawn) [Compound 58, 2-((4-(2-(4-chloro-2-methoxyphenyl)-2-methylbenzo[d][1,3]dioxol-4-yl)piperidin-1-yl)methyl)-4-ethoxy-1-(((S)-oxetan-2-yl)methyl)-1H-benzo[d]imidazole-6-carboxylic acid], the EC50 was 0.0022 nM.
As to `[2H]C([2H])([2H])C([2H])([2H])Oc1cc(C(=O)O)cc2c1nc(CN1CCC(c3cccc4c3OC(C)(c3ccc(Cl)cn3)O4)CC1)n2C[C@@H]1CCO1` (stereo partly drawn) [Compound 72, 2-((4-(2-(5-chloropyridin-2-yl)-2-methylbenzo[d][1,3]dioxol-4-yl)piperidin-1-yl)methyl)-4-(ethoxy-d5)-1-(((S)-oxetan-2-yl)methyl)-1H-benzo[d]imidazole-6-carboxylic acid], the EC50 was determined as 0.01 nM.
As to `COc1cc(C(=O)O)cc2c1nc(CN1CCC(c3cccc4c3OC(C)(c3ccc(Cl)cc3F)O4)CC1)n2C[C@@H]1CCO1` (stereo partly drawn) [Compound 36, 2-((4-(2-(4-chloro-2-fluorophenyl)-2-methylbenzo[d][1,3]dioxol-4-yl)piperidin-1-yl)methyl)-4-methoxy-1-(((S)-oxetan-2-yl)methyl)-1H-benzo[d]imidazole-6-carboxylic acid], the EC50 turned out to be 0.0083 nM.
On to `CCOc1cc(C(=O)O)cc2c1nc(CN1CCN(c3cccc4c3OC(C)(c3ccc(Cl)cc3OC)O4)C=N1)n2C[C@@H]1CCO1` (stereo partly drawn) [Compound 85, 2-((4-(2-(4-chloro-2-methoxyphenyl)-2-methylbenzo[d][1,3]dioxol-4-yl)-5,6-dihydro-1,2,4-triazin-1(4H)-yl)methyl)-4-ethoxy-1-(((S)-oxetan-2-yl)methyl)-1H-benzo[d]imidazole-6-carboxylic acid], for which the EC50 was 0.005 nM.
With `COc1cc(C(=O)O)cc2c1nc(CN1CCC(c3ccccc3OCc3ccc(Cl)cc3F)CC1)n2C[C@@H]1CCO1` [Compound 48, (S)-2-((4-(2-((4-chloro-2-fluorobenzyl)oxy)phenyl)piperidin-1-yl)methyl)-4-methoxy-1-(oxetan-2-ylmethyl)-1H-benzo[d]imidazole-6-carboxylic acid], the EC50 stood at 0.0434 nM.
“4-methoxy-2-((4-(2-(2-methoxy-4-(trifluoromethyl)phenyl)-2-methylbenzo[d][1,3]dioxol-4-yl)piperidin-1-yl)methyl)-1-((S)-oxetan-2-yl)methyl]-1H-benzo[d]imidazole-6-carboxylic acid [Compound 59]”: the EC50 stood at 0.0031 nM.
The same measure, in the same setting: the result for `[2H]C([2H])([2H])C([2H])([2H])Oc1cc(C(=O)O)cc2c1nc(CN1CCN(c3cccc4c3OC(C)(c3ccc(F)cc3F)O4)C=N1)n2C[C@@H]1CCO1` (stereo partly drawn) [Compound 87, 2-((4-(2-(2,4-difluorophenyl)-2-methylbenzo[d][1,3]dioxol-4-yl)-5,6-dihydro-1,2,4-triazin-1(4H)-yl)methyl)-4-(ethoxy-d5)-1-(((S)-oxetan-2-yl)methyl)-1H-benzo[d]imidazole-6-carboxylic acid] reads 0.0212 nM; that for `COc1cc(C(=O)O)cc2c1nc(CN1CCC(c3cccc4c3OC(C)(c3ccc(C(F)(F)F)cc3F)O4)CC1)n2C[C@@H]1CCO1` (stereo partly drawn) [Compound 53, 2-((4-(2-(2-fluoro-4-(trifluoromethyl)phenyl)-2-methylbenzo[d][1,3]dioxol-4-yl)piperidin-1-yl)methyl)-4-methoxy-1-(((S)-oxetan-2-yl)methyl)-1H-benzo[d]imidazole-6-carboxylic acid], 0.0093 nM.
Same read-out and setting: the result for `[2H]C([2H])([2H])C([2H])([2H])Oc1cc(C(=O)O)cc2c1nc(CN1CCC(c3cccc4c3OC(C)(c3ccc(Cl)cc3F)O4)CC1)n2C[C@@H]1CCO1` (stereo partly drawn) [Compound 75, 2-((4-(2-(4-chloro-2-fluorophenyl)-2-methylbenzo[d][1,3]dioxol-4-yl)piperidin-1-yl)methyl)-4-(ethoxy-d5)-1-(((S)-oxetan-2-yl)methyl)-1H-benzo[d]imidazole-6-carboxylic acid] reads 0.003 nM; that for `COc1cc(C(=O)O)cc2c1nc(CN1CCC(c3ccccc3OCc3ccc(C#N)cc3F)CC1)n2C[C@@H]1CCO1` [Compound 47, (S)-2-((4-(2-((4-cyano-2-fluorobenzyl)oxy)phenyl)piperidin-1-yl)methyl)-4-methoxy-1-(oxetan-2-ylmethyl)-1H-benzo[d]imidazole-6-carboxylic acid], 0.0613 nM.
As to `COc1cc(C(=O)O)cc2c1nc(CN1CCN(c3cccc4c3OC(C)(c3ccc(Cl)cc3F)O4)CC1)n2C[C@@H]1CCO1` (stereo partly drawn) [Compound 40, 2-((4-(2-(4-chloro-2-fluorophenyl)-2-methylbenzo[d][1,3]dioxol-4-yl)piperazin-1-yl)methyl)-4-methoxy-1-(((S)-oxetan-2-yl)methyl)-1H-benzo[d]imidazole-6-carboxylic acid], the EC50 amounted to 0.0111 nM.
For `COc1cc(C(=O)O)cc2c1nc(CN1CCC(c3cccnc3OCc3ccc(Cl)cc3F)CC1)n2C[C@@H]1CCO1` [Compound 31, (S)-2-((4-(2-((4-chloro-2-fluorobenzyl)oxy)pyridin-3-yl)piperidin-1-yl)methyl)-4-methoxy-1-(oxetan-2-ylmethyl)-1H-benzo[d]imidazole-6-carboxylic acid], the 50% effective concentration (EC50) came to 0.037 nM.
`[2H]C([2H])([2H])Oc1cc(C(=O)O)cc2c1nc(CN1CCN(c3cccc(OCc4ccc(Cl)cc4F)n3)C=N1)n2C[C@@H]1CCO1` [Compound 26, (S)-2-((4-(6-((4-chloro-2-fluorobenzyl)oxy)pyridin-2-yl)-5,6-dihydro-1,2,4-triazin-1(4H)-yl)methyl)-4-(methoxy-d3)-1-(oxetan-2-ylmethyl)-1H-benzo[d]imidazole-6-carboxylic acid]: the EC50 was found to be 0.0093 nM.
On to `COc1cc(C(=O)O)cc2c1nc(CN1CCC(c3cccc(OCc4ccc(C(F)(F)F)cc4F)n3)CC1)n2C[C@@H]1CCO1` [Compound 27, (S)-2-((4-(6-((2-fluoro-4-(trifluoromethyl)benzyl)oxy)pyridin-2-yl)piperidin-1-yl)methyl)-4-methoxy-1-(oxetan-2-ylmethyl)-1H-benzo[d]imidazole-6-carboxylic acid], for which the half-maximal effective concentration (EC50) amounted to 0.0087 nM.

The same assay, now with this note: cAMP levels of the hGLP-1R/HEK293 cell line; Table 2, comparison with reference compounds; read-out: EC50.
`O=C(O)c1ccc2nc(CN3CCC(c4cccc(OCc5ccc(Cl)cc5F)n4)CC3)n(C[C@@H]3CCO3)c2c1` [WO2018109607 , Example 3A-01, reference compound]: the concentration for a half-maximal effect (EC50) stood at 0.0327 nM.
As to `N#Cc1ccc(COc2cccc(C3CCN(Cc4nc5c(F)cc(C(=O)O)cc5n4C[C@@H]4CCO4)CC3)n2)c(F)c1` [WO2022109182 , Example 21, reference compound], the concentration giving a half-maximal response (EC50) came out at 0.0261 nM.
In the case of `O=C(O)c1ccc2nc(CN3CCC(c4cccnc4OCc4ccc(Cl)cc4F)CC3)n(C[C@@H]3CCO3)c2c1` [WO2019239371 , Example 1, reference compound], the half-maximal effective concentration (EC50) was 0.0458 nM.
On the same count and under the same terms, the result for `O=C(O)c1ccc2nc(CN3CCN(c4cccc(OCc5ccc(Cl)cc5F)n4)CC3)n(C[C@@H]3CCO3)c2c1` [WO2018109607 , Example 10A-08, reference compound] reads 0.0289 nM.

The record behind these values is patent EP4650353A1 (Shanghai Institute of Materia Medica, Chinese Academy of …, priority 2023, dated 2024).
